The values below come from US5760016A, “Use of mono-3,6-anhydrocyclodextrins for solubilizing a hydrophobic compound and for controlling the purity of an enantiomer and process for the preparation of these cyclodextrins” (priority 1993, dated 1998).

Converted amounts (≈) assume the structure as drawn.

For data set [1] the following is noted: background; cited from earlier work.
Data set [2] can be described thus: Solubility in water of cyclodextrins.
Data set [3] has as its system human erythrocytes. Put plainly: Hemolysis of human erythrocytes by the cyclodextrin derivative. The note with it: 50 mmole/l. The format is cell-based.
Test in data set [4]: as above
The format is cell-based. The note with it: erythrocytes; 5 mmole/l, 0.4 ml of human erythrocyte suspension, pH 7.4, 30 min, 37° C.; read-out: hemolysis percentage.

Data set [5] in a line: physchem. The note with it: water.
The nature of data set [6]: Solubility of prednisolone in water, alone or in the presence of a cyclodextrin. The data set is classed as physicochemical. The method, then:
10 μmole of mono-3,6-anhydrocyclomaltoheptaose prepared in example 1 are dissolved in 1 ml of pure water (apyrogenic water for injections) and addition takes place of 5 μmole of prednisolone in the form of a 50 mmole/l concentrated solution in acetone. The acetone is eliminated under nitrogen bubbling and the solution lyophilized.
The residual solid, which contains 10 μmole of the cyclodextrin derivative and 5 μmole of prednisolone, is redissolved in the minimum of water at 25° C.

The conditions of data set [7]: 25° C., without cyclodextrin; cited from earlier work.

In the case of `COC[C@H]1O[C@@H]2O[C@H]3[C@H](O)[C@@H](OC)[C@@H](O[C@H]4[C@H](O)[C@@H](OC)[C@@H](O[C@H]5[C@H](O)[C@@H](OC)[C@@H](O[C@H]6[C@H](O)[C@@H](OC)[C@@H](O[C@H]7[C@H](O)[C@@H](OC)[C@@H](O[C@H]8[C@H](O)[C@@H](OC)[C@@H](O[C@H]1[C@H](O)[C@H]2OC)O[C@@H]8COC)O[C@@H]7COC)O[C@@H]6COC)O[C@@H]5COC)O[C@@H]4COC)O[C@@H]3COC` [2,6-dimethyl-β-cyclodextrin], the “solubilizing properties for hydrophobic organic compounds” value in data set [1] is on record as “good properties of solubilizing hydrophobic, organic compounds”.
As a reminder, the solubility is the concentration that dissolves in the medium under given conditions. As to `OC[C@H]1O[C@@H]2O[C@H]3[C@H](O)[C@@H](O)[C@@H](O[C@H]4[C@H](O)[C@@H](O)[C@@H](O[C@H]5[C@@H]6OC[C@H]5O[C@H](O[C@H]5[C@H](O)[C@@H](O)[C@@H](O[C@H]7[C@H](O)[C@@H](O)[C@@H](O[C@H]8[C@H](O)[C@@H](O)[C@@H](O[C@H]1[C@H](O)[C@H]2O)O[C@@H]8CO)O[C@@H]7CO)O[C@@H]5CO)[C@@H]6O)O[C@@H]4CO)O[C@@H]3CO` [mono-3,6-anhydrocyclomaltoheptaose], the “solubility in water relative to .chi. and γ-cyclodextrins” value in data set [2] (ratio to .chi. and γ-cyclodextrins) is “at least twice”. Also, the “solubility in water relative to the original cyclodextrin” value in data set [2] (ratio to original cyclodextrin (18 g/l), 25° C.) is listed as roughly 30 times. Moreover, the “hemolytic properties at much higher concentrations” value in data set [3] was “no hemolysis detectable”. The hemolysis at 0.5 h, 5000 µM in data set [4] was found to be 0%. The solubility in data set [5] was found to be 520 mg/mL (≈ 466 mM).
Regarding `C[C@]12C=CC(=O)C=C1CC[C@@H]1[C@@H]2[C@@H](O)C[C@@]2(C)[C@H]1CC[C@]2(O)C(=O)CO` [prednisolone], the solubility in data set [6] (25° C., in the presence of mono-3,6-anhydrocyclomaltoheptaose at 200 mmole/l, read-out: maximum prednisolone solubility in water) came out at 100 mM; in data set [6] (prednisolone solubility in the presence of β-cyclodextrin, same conditions, with β-cyclodextrin) it was 9 mM. Besides, in data set [7], the “solubility in water of prednisolone” value was 0.25 mg/mL.
As for `OC[C@H]1O[C@@H]2O[C@H]3[C@H](O)[C@@H](O)[C@@H](O[C@H]4[C@H](O)[C@@H](O)[C@@H](O[C@H]5[C@H](O)[C@@H](O)[C@@H](O[C@H]6[C@H](O)[C@@H](O)[C@@H](O[C@H]7[C@H](O)[C@@H](O)[C@@H](O[C@H]8[C@H](O)[C@@H](O)[C@@H](O[C@H]1[C@H](O)[C@H]2O)O[C@@H]8CO)O[C@@H]7CO)O[C@@H]6CO)O[C@@H]5CO)O[C@@H]4CO)O[C@@H]3CO` [β-cyclodextrin, cyclomaltoheptaose], the hemolysis at 0.5 h, 5000 µM in data set [4] amounted to 50%.
